Experimental data taken from US5776718A, “Reversible protease inhibitors” (Arris Pharmaceutical Corporation, priority 1996, dated 1998).
Read-outs that look alike come from different tables or passages of the source.

How the values were obtained:
cathepsin L = cathepsin L (Homo sapiens, UniProt P07711); assay: Inhibition of cathepsin L, fluorogenic substrate Z-Phe-Arg-AMC; type: biochemical
Protocol: (§1) Conditions for cathepsin L: 50 mM acetate, pH 5.5, 2.5 mM EDTA, 2.5 mM DTT. substrate: [Z-Phe-Arg-AMC]=5 mM (Km=2 mM). The assay at 25^0 was started by the addition of cat L (final concentration approx 1 nM) and the increase in fluorescence at 450 nm with excitation at 380 nm was followed over 2 min. The depression in the rate of substrate hydrolysis following addition of varying concentrations of inhibitors was noted. The assay was linear throughout the range observed. Duplicate runs were measured.
(§2) The respective Ki values were estimated by using the Dixon plot as described by Irwin Segel in Enzyme Kinetics: Behavior and analysis of rapid equilibrium and steady-state enzyme systems, 1975, Wiley-lnterscience Publication, John Wiley & Sons, New York.

cruzain = cruzain (Trypanosoma cruzi, UniProt P25779); assay: Inhibition of cruzain (conditions as for cathepsin L); type: biochemical, T. cruzi
Chain of cruzain (P25779 123-467): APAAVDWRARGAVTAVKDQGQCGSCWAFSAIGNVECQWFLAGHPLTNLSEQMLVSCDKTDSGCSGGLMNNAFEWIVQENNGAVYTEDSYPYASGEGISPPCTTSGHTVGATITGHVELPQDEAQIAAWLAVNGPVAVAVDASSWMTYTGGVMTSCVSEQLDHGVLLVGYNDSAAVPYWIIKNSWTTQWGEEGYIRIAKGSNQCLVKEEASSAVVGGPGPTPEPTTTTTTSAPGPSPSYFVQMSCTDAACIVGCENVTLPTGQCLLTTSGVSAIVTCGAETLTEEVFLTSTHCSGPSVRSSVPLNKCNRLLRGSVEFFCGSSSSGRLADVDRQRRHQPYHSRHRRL
Protocol: as §1
Conditions for cruzain were the same as for cathepsin L with the exception that the Km for the substrate was 1 mM.
as §2

cathepsin B = cathepsin B (Homo sapiens, UniProt P07858); assay: Inhibition of cathepsin B, fluorogenic substrate Z-Arg-Arg-AMC; type: biochemical
Protocol: as §1, with “The” for “Conditions for cathepsin L: 50 mM acetate, pH 5.5, 2.5 mM EDTA, 2.5 mM DTT. substrate: [Z-Phe-Arg-AMC]=5 mM (Km=2 mM). The”, “250” for “25^0”, “B” for “L”, “10” for “1”
as §2

cathepsin S = cathepsin S (Homo sapiens, UniProt P25774); assay: Inhibition of cathepsin S, fluorogenic substrate Z-Val-Val-Arg-AMC; type: biochemical; conditions: 50 mM phosphate, pH 6.5, 2.5 mM EDTA, 2.5 mM DTT; Dixon plot
Chain of cathepsin S (P25774 115-331, species assumed): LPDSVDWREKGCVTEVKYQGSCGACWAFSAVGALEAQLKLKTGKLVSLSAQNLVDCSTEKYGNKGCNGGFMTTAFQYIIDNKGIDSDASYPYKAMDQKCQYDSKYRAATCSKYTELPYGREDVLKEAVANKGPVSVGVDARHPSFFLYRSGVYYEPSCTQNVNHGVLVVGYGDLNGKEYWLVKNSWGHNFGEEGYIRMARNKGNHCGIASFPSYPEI
Protocol: as §1, with “The” for “Conditions for cathepsin L: 50 mM acetate, pH 5.5, 2.5 mM EDTA, 2.5 mM DTT. substrate: [Z-Phe-Arg-AMC]=5 mM (Km=2 mM). The”, “250” for “25^0”, “S” for “L”, “[…])” for “1 nM)”
as §2

[1] = 50 mM acetate, pH 5.5, 2.5 mM EDTA, 2.5 mM DTT, Dixon plot, read-out: cathepsin L (Ki μM)
[2] = 50 mM acetate, pH 5.5, 2.5 mM EDTA, 2.5 mM DTT, Km 1 mM, Dixon plot, read-out: cruzain (Ki μM)
[3] = 50 mM phosphate, pH 6.0, 2.5 mM EDTA, 2.5 mM DTT, Dixon plot, read-out: cathepsin B (Ki μM)

Chain of cathepsin L (P07711 114-333, species assumed): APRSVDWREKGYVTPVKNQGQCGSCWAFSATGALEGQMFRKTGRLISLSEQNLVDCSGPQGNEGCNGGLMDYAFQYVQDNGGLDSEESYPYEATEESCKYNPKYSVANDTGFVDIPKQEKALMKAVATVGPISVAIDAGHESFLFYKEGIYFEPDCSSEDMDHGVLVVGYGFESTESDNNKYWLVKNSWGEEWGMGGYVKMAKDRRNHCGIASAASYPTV

SMILES | Ki (cathepsin L; [1]) [µM] | Ki (cruzain; [2]) [µM] | Ki (cathepsin B; [3]) [µM] | Ki (cathepsin S) [µM] | Ki (cathepsin L) [µM] | Ki (cruzain) [µM] | Ki (cathepsin B) [µM]
COC(=O)CCC(=O)N[C@@H](Cc1ccccc1)C(=O)N[C@@H](CCc1ccccc1)CCS(=O)(=O)c1ccccc1 [MeOSuc--Phe--HphγSO2 Ph, methyl 3-{2-phenyl-1S-[3-phenyl-1S-(2-phenylsulfonylethyl)propylcarbamoyl]ethylcarbamoyl}propionate] | 3.2 | 4.7 | 81 | – | – | – | –
CC(C)C[C@H](NC(=O)N1CCOCC1)C(=O)NC(CCc1ccccc1)S(=O)(=O)Cc1ccccc1 (stereo partly drawn) [Mu--Leu--HphαSO2 Bzl, N^2-(4-morpholinylcarbonyl)-N^1-(3-phenyl-1-benzylsulfonylpropyl)-L-leucinamide] | 0.6 | 0.76 | 54 | 4.2 | – | – | –
CC(C)C[C@H](NC(=O)N1CCOCC1)C(=O)NC(CCc1ccccc1)S(=O)(=O)c1ccccc1 (stereo partly drawn) [Mu--Leu--HphαSO2 Ph, N^2-(4-morpholinylcarbonyl)-N^1-(3-phenyl-1-phenylsulfonylpropyl)-L-leucinamide] | 1.3 | 0.27 | 16 | 1.6 | – | – | –
O=C(N[C@@H](CCc1ccccc1)CCS(=O)(=O)c1ccc2ccccc2c1)[C@H](Cc1ccc2ccccc2c1)NC(=O)N1CCOCC1 [Mu--Np2-HphγSO2 Np, N^2-(4-morpholinylcarbonyl)-N^1 -{3-phenyl-1S-[2-(2-naphthylsulfonyl)ethyl]propyl}-β-(2-naphthyl)-L-alaninamide] | 0.26 | 0.1 | 20 | – | – | – | –
O=C(NC(CCc1ccccc1)S(=O)(=O)c1ccccc1)[C@H](Cc1ccccc1)NC(=O)N1CCOCC1 (stereo partly drawn) [Mu--Phe--(DL)HphαSO2 Ph, N^2-(4-morpholinylcarbonyl)-N^1-(3-phenyl-1-phenylsulfonylpropyl)-L-phenylalaninamide] | 13 | 15 | 3000 | 5 | – | – | –
O=C(NC(CCc1ccccc1)S(=O)(=O)c1ccccc1)[C@H](Cc1ccccc1)NC(=O)N1CCOCC1 (stereo partly drawn) [Mu--Phe--(DL)HphαSO2 Ph,] | – | – | – | 3.7 | – | – | –
Nc1ccc(CC[C@H](CCc2ccccc2)NC(=O)[C@H](Cc2ccccc2)NC(=O)N2CCOCC2)cc1 [Mu--Phe--Hph--γPh--NH2, N^2-(4-morpholinylcarbonyl)-N^1 -{3-phenyl-1S-[2-(4-aminophenyl)ethyl]propyl}-L-phenylalaninamide] | 2.9 | 3 | – | – | – | – | –
COc1ccc(CC[C@H](CCc2ccccc2)NC(=O)[C@H](Cc2ccccc2)NC(=O)N2CCOCC2)cc1 [Mu--Phe--Hph-γPh--OMe, N^2-(4-morpholinylcarbonyl)-N^1 -{3-phenyl-1S-[2-(4-methoxyphenyl)ethyl]propyl}-L-phenylalaninamide] | 0.94 | 0.89 | 4.8 | – | – | – | –
O=C(NC(CCc1ccccc1)S(=O)(=O)Cc1ccccc1)[C@H](Cc1ccccc1)NC(=O)N1CCOCC1 (stereo partly drawn) [Mu--Phe--HphαSO2 Bzl, N^2-(4-morpholinylcarbonyl)-N^1-(3-phenyl-1-benzylsulfonylpropyl)-L-phenylalaninamide] | 1.2 | 0.92 | 77 | – | – | – | –
O=C(NC(CCc1ccccc1)S(=O)(=O)CF)[C@H](Cc1ccccc1)NC(=O)N1CCOCC1 (stereo partly drawn) [Mu--Phe--HphαSO2 CH2 F, N^2-(4-morpholinylcarbonyl)-N^1-(3-phenyl-1-fluoromethylsulfonylpropyl)-L-phenylalaninamide] | 1.5 | 2 | 170 | 2.8 | – | – | –
O=C(NC(CCc1ccccc1)S(=O)(=O)C(F)(F)F)[C@H](Cc1ccccc1)NC(=O)N1CCOCC1 (stereo partly drawn) [Mu--Phe--HphαSO2 CR3, N^2-(4-morpholinylcarbonyl)-N^1-(3-phenyl-1-trifluoromethylsulfonylpropyl)-L-phenylalaninamide] | 0.18 | 0.23 | 50 | – | – | – | –
O=C(N[C@@H](CCc1ccccc1)S(=O)(=O)c1ccccc1)[C@H](Cc1ccccc1)NC(=O)N1CCOCC1 [Mu--Phe--HphαSO2 Ph] | – | – | – | 2.6 | – | – | –
O=C(N[C@@H](CCc1ccccc1)CS(=O)(=O)c1ccccc1)[C@H](Cc1ccccc1)NC(=O)N1CCOCC1 [Mu--Phe--HphβSO2 Ph, N^1-(4-morpholinylcarbonyl)-N^1-(3-phenyl-1S-phenylsulfonylmethylpropyl)-L-phenylalaniamide] | 29 | 5.7 | 1100 | – | – | – | –
CCOC(=O)CC[C@H](CCc1ccccc1)NC(=O)[C@H](Cc1ccccc1)NC(=O)N1CCOCC1 [Mu--Phe--HphγCO2 Et, ethyl 4S-[N-(4-morpholinylcarbonyl)-L-phenylalanylamino]-6-phenylhexanoate] | 0.48 | 0.91 | 1.6 | – | – | – | –
O=C(CC[C@H](CCc1ccccc1)NC(=O)[C@H](Cc1ccccc1)NC(=O)N1CCOCC1)NCc1ccccc1 [Mu--Phe--HphγCONHBzl, N^2-(4-morpholinylcarbonyl)-N^1-[3-phenyl-1S-(2-benzylcarbamoylethyl)propyl]-L-phenylalaninamide] | 19 | 7.7 | – | – | – | – | –
O=C(CC[C@H](CCc1ccccc1)NC(=O)[C@H](Cc1ccccc1)NC(=O)N1CCOCC1)Nc1ccccc1 [Mu--Phe--HphγCONHPh, N^2-(4-morpholinylcarbonyl)-N^1-[3-phenyl-1S-(2-phenylcarbamoylethyl)propyl]-L-phenylalaninamide] | 2 | 0.13 | 2.6 | – | – | – | –
CCOP(=O)(CC[C@H](CCc1ccccc1)NC(=O)[C@H](Cc1ccccc1)NC(=O)N1CCOCC1)OCC [Mu--Phe--HphγPO(O2 Et)2] | – | – | – | – | 3 | 15 | 17
O=C(N[C@@H](CCc1ccccc1)CCS(=O)(=O)CCc1ccccc1)[C@H](Cc1ccccc1)NC(=O)N1CCOCC1 [Mu--Phe--HphγSO2 EtPh, N^2-(4-morpholinylcarbonyl)-N^1 -{3-phenyl-1S-[2-(2-phenylethylsulfonyl)ethyl]propyl}-L-phenylalaninamide] | 0.17 | 5.9 | – | – | – | – | –
O=C(N[C@@H](CCc1ccccc1)CCS(=O)(=O)c1ccccc1)[C@H](Cc1ccccc1)NC(=O)N1CCOCC1 [Mu--Phe--HphγSO2 Ph, N^2-(4-morpholinylcarbonyl)-N^1-[3-phenyl-1S-(2-phenylsulfonylethyl)propyl]-L-phenylalaninamide] | 10 | 4.3 | 48 | – | – | – | –
O=C(N[C@@H](CCc1ccccc1)CCS(=O)(=O)c1ccccc1)[C@H](Cc1ccc(O)cc1)NC(=O)N1CCOCC1 [Mu--Tyr--HphγSO2 Ph, (S)-3-(4-morpholinecarbonyltyrosyl)-amino-5-phenyl-1-phenylsulfonylpentane] | 2.3 | – | – | – | – | 20 | –
O=C(Cc1ccccc1)N[C@@H](Cc1ccccc1)C(=O)N[C@@H](CCc1ccccc1)CCS(=O)(=O)c1ccccc1 [Phac--Phe--HphγSO2 Ph, N^2-phenylacetyl-N^1-[3-phenyl-1S-(2-phenylsulfonylethyl)propyl]-L-phenylalaninamide] | 0.41 | 1.8 | > 10 | – | – | – | –
O=C(O)CCC(=O)N[C@@H](Cc1ccc2ccccc2c1)C(=O)N[C@@H](CCc1ccccc1)CCS(=O)(=O)c1ccc2ccccc2c1 [Suc--Np2--HphγSO2 2Np] | 0.11 | 0.23 | > 1000 | – | – | – | –
O=C(O)CCC(=O)N[C@@H](Cc1ccc2ccccc2c1)C(=O)N[C@@H](CCc1ccccc1)CCS(=O)(=O)c1ccccc1 [Suc--Np2--HphγSO2 Ph, 3-{2-naphthyl-1S-[3-phenyl-1S-(2-phenylsulfonylethyl)propylcarbamoyl]ethylcarbamoyl}propionic acid] | 2.3 | 0.78 | > 1000 | – | – | – | –
O=C(O)CCC(=O)N[C@@H](Cc1ccccc1)C(=O)N[C@@H](CCc1ccccc1)CCS(=O)(=O)c1ccccc1 [Suc--Phe--HphγSO2 Ph, 3-{2-phenyl-1S-[3-phenyl-1S-(2-phenylsulfonylethyl)propylcarbamoyl]ethylcarbamoyl}propionic acid] | 1 | 1.5 | > 1000 | – | – | – | –
O=C(CCNC(=O)OCc1ccccc1)N[C@@H](Cc1ccccc1)C(=O)N[C@@H](CCc1ccccc1)CCS(=O)(=O)c1ccccc1 [Z--β-Ala--Phe--HphγSO2 Ph, M-(N-benzyloxycarbonyl-β-alanyl)-N^1-[3-phenyl-1S-(2-phenylsulfonylethyl)propyl]-L-phenylalaninamide] | 0.79 | 0.54 | 52 | – | – | – | –
NCCC(=O)N[C@@H](Cc1ccccc1)C(=O)N[C@@H](CCc1ccccc1)CCS(=O)(=O)c1ccccc1 [β-Ala--Phe--HphγSO2 Ph, N^2-(β-alanyl)-N^1-[3-phenyl-1S-(2-phenylsulfonylethyl)propyl]-L-phenylalaninamide] | 14 | 14 | – | – | – | – | –
